# Test results: patent US11026944B2, “Compositions and methods for treating insomnia” (Eisai R&D Management Co., Ltd., priority 2014, dated 2021)
# Experiments:
# Type in all cases: in vivo, human
# [1] = tested on: subjects with primary insomnia; experiment: 001 Study Part B: next day KSS, DSST, PVT
# Source text: After the initial Screening visit, eligible subjects were scheduled to return to the clinic for 2 days during the Screening Period to conduct screening/baseline PSGs. These two days occurred at least 3 days after the initial Screening visit and within a window from Day-7 to Day-6 (±2 days). The first PSG was used to screen for sleep apnea and periodic limb movements in sleep (PLMS) and serve as the first baseline PSG. The second PSG was used as the second baseline PSG. Specific PSG variables were used to determine whether subjects met PSG inclusion criteria, and the average of PSG variables from these two PSGs was used as Baseline for this PD measure. Subjects who had met PSG inclusion criteria returned to the clinic on Day-1 for additional baseline procedures and randomization. Subjects were not allowed to nap on Day 1. On the evening of Day 1, after fasting a minimum of 3 hours, study drug was administered 30 minutes prior to the subject's habitual bedtime (lights-out), as calculated from the sleep diary for the first PSG during the Screening Period. PK blood samples were collected at prespecified timepoints, and PD assessments were performed. PSG was recorded on Day 1, postdose. Subjects were administered additional PD assessments each morning on Day 1 through Day 6. These assessments included the KSS, DSST, and PVT, in order to assess daytime sleepiness, level of alertness, and ability to concentrate. The KSS and DSST were also administered 5 minutes predose and 25 minutes postdose on Day 1, just prior to lights-out. Waketime Questionnaires were administered after the PD assessments within 15 minutes of lights-on, on Day 1 to Day 6. Time and duration of naps was recorded on Day 2.
# Part B subjects were administered the KSS, DSST, and PVT within 15 minutes after lights-on specifically in that order, on each morning from Day 1 through Day 6, followed by the Waketime Questionnaire. The KSS and DSST were also administered 5 minutes predose and 25 minutes postdose on Day 1 (just prior to lights-out).
# [2] = 001 Study Part B: plasma PK of compound A; settings: subjects with primary insomnia, single evening dose
# Method: For subjects in Part B, blood samples for measurements of plasma concentrations of compound A were obtained by direct venipuncture on Day 1 predose and at 0.5, 9, 12, 24, 36, 60, 84, 108, 156, and 228 hours postdose.
# Plasma concentrations of compound A were measured using a validated liquid chromatography-mass spectrometry/mass spectrometry (LC-MS/MS) assay.
# subjects with insomnia = experiment: 201 Study: population PK and PK/PD analysis
# Method: During the Treatment period, blood samples for plasma concentrations of compound A were obtained within 30 minutes predose each night (except on Day 1) in the clinic and within 1 hour of morning waketime following each night spent in the clinic. Plasma concentrations of compound A were measured using a validated liquid chromatography-tandem mass spectrometry (LC-MS/MS) assay.
# The PK/PD Analysis Set was used to evaluate relationships between compound A concentrations and selected PD parameters. The relationships between exposure to compound A and selected PD endpoints (eg. KSS, DSST, RTI) were explored graphically and could be followed by population PK/PD modeling. The relationship between plasma concentrations of compound A at predose (trough), and within 1 hour after morning waketime, and selected PD parameters, was analyzed using Nonmem version 7.2 or later.
# Measures of the PD effects of compound A included KSS, RTI, DSST, the WFB (RTI, Rapid Visual Processing [RVP], and Spatial Span [SSP]), POMS, melatonin levels, and the DLMO. Due to high variability and non-normal distribution in change from baseline of LPS, it was not possible to reliably model the concentration-response relationship between compound A PK parameters and LPS. Nonetheless, higher plasma concentrations of compound A were associated with larger decreases in LPS, up to approximately 10 ng/mL. This finding was consistent with the efficacy results, where LPS was decreased at doses of 2.5 mg and higher. […] When modeled, WASO data were best described by log-linear relationships with the maximum observed concentration (Cmax). […] However, subjects whose compound A plasma concentrations were greater than 20 ng/mL at 1 hour after waking had slightly greater increases on the KSS and a higher incidence of AEs of somnolence. This concentration is predicted to be achieved by most subjects receiving doses greater than 10 mg.
structure (smiles),measurement,setting,value
"Cc1ncc(OC[C@@]2(c3cccc(F)c3)C[C@H]2C(=O)Nc2ccc(F)cn2)c(C)n1 [Compound A, (1R,2 S)-2-(((2,4-dimethylpyrimidin-5-yl)oxy)methyl)-2-(3-fluorophenyl)-N-(5-fluoropyridin-2-yl) cyclopropanecarboxamide]","next day effects on KSS, DSST, or PVT","[1]; any dose of compound A (2.5, 10, 25 mg), zolpidem 10 mg",no clinically significant next day effects
same,measures of next-day residual sleepiness,[1]; single 25 mg evening dose,some individuals at this dose exhibited increases from baseline
same,concentration-time profiles in Part B compared with Part A,[2],approximately similar to their corresponding dose groups in Part A
same,"next-day residual sleepiness (KSS, DSST, RTI) vs time-matched plasma concentrations",subjects with insomnia; PK/PD analyses,did not show any apparent relationship
same,exposure-response relationship for WASO,subjects with insomnia; PK/PD model,log-linear relationship with Cmax
same,plasma concentration up to which higher concentrations were associated with larger decreases in LPS,subjects with insomnia; asymptote above this concentration,approximately 10 ng/mL
same,plasma concentration associated with slightly greater increases on the KSS and higher incidence of AEs of somnolence,subjects with insomnia; at 1 hour after waking,greater than 20 ng/mL
same,Apparent clearance,subjects with insomnia; population PK,independent of dose and time
same,PK model,subjects with insomnia; population PK,2-compartment model with elimination from the central compartment
same,doses predicted to achieve plasma concentration greater than 20 ng/mL at 1 hour after waking in most subjects,subjects with insomnia; predicted,greater than 10 mg
